The target in assay [1] is Voltage-dependent L-type calcium channel subunit alpha-1C (Homo sapiens, UniProt Q13936). The assay is classed as functional, cell-based.
The target of assay [2] is Rod cGMP-specific 3',5'-cyclic phosphodiesterase subunit alpha (Homo sapiens, UniProt P16499). The assay is classed as functional.
Assay [3] addresses T1, Muscarinic acetylcholine receptor M5 (Homo sapiens, UniProt P08912).
T1 sequence (P08912 whole entry): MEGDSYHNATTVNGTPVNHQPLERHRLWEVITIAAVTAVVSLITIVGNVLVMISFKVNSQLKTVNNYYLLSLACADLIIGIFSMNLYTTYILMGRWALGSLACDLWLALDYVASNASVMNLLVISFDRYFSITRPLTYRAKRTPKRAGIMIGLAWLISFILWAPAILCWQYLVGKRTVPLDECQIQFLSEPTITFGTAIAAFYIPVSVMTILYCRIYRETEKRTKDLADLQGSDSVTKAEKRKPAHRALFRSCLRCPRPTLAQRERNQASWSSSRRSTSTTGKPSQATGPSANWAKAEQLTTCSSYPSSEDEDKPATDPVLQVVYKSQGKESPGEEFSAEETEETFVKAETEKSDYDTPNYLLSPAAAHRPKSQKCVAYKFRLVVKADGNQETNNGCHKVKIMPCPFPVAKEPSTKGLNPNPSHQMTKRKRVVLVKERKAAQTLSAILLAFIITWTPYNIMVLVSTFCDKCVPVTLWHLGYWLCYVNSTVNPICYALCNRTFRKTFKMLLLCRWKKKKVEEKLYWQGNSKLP

The target of another assay is D(1B) dopamine receptor (Homo sapiens, UniProt P21918).
Chain of D(1B) dopamine receptor (P21918 whole entry): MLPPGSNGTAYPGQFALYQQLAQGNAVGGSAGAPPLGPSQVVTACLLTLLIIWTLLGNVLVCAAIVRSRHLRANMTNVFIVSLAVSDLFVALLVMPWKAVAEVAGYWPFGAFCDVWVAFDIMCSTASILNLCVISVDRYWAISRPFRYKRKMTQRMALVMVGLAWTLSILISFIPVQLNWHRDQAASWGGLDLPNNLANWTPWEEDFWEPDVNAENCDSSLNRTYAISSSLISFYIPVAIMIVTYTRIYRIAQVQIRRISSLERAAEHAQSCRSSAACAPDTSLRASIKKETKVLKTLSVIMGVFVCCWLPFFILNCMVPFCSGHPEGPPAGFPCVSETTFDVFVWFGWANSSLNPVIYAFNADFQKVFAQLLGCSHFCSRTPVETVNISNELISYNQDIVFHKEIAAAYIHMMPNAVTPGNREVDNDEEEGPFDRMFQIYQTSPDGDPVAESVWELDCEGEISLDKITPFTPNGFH
The target of assay [4] is 5-hydroxytryptamine receptor 5A (Homo sapiens, UniProt P47898).
Chain of 5-hydroxytryptamine receptor 5A (P47898 whole entry): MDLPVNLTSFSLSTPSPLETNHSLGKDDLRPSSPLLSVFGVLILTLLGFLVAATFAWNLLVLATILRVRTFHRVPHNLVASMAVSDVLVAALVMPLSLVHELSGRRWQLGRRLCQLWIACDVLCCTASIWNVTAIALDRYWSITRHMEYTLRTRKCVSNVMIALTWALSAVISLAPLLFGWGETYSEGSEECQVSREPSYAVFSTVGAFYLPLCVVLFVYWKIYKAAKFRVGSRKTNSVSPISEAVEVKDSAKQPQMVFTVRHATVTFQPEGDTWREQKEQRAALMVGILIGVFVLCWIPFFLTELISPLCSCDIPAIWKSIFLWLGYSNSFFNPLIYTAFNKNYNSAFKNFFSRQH
The target of assay [5] is Vascular endothelial growth factor receptor 2 (Homo sapiens, UniProt P35968). Format: functional.
The next assay deals with T2, Thromboxane A2 receptor (Homo sapiens, UniProt P21731).
T2 sequence (P21731 whole entry): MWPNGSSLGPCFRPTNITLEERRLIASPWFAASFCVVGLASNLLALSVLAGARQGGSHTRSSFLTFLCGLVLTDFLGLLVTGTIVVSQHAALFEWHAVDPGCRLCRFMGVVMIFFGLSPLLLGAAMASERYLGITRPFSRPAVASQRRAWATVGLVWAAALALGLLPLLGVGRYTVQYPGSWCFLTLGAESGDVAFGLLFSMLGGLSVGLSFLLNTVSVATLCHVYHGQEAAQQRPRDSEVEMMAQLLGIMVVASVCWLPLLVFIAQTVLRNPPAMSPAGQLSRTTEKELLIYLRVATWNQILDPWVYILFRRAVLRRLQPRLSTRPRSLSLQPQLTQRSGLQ
The assay is classed as functional.

The target in assay [6] is Epidermal growth factor receptor (Homo sapiens, UniProt P00533). Format: functional.
Assay [7] addresses T3, D(1A) dopamine receptor (Homo sapiens, UniProt P21728). The assay is classed as functional, cell-based.
The target of assay [8] is T4, Muscarinic acetylcholine receptor M1 (Homo sapiens, UniProt P11229).
T4 sequence (P11229 whole entry): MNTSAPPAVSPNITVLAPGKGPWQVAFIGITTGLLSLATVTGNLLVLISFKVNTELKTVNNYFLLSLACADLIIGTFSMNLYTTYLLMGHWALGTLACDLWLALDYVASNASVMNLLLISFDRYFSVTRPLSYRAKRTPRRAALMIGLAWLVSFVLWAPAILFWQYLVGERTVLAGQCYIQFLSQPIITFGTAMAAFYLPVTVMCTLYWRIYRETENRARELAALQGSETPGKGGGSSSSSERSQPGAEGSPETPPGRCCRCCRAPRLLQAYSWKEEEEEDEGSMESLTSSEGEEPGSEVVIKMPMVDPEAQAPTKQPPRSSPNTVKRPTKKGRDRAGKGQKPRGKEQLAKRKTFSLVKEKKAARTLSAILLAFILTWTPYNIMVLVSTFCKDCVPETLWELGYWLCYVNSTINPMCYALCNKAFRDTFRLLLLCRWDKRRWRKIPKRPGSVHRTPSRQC
Format: functional, cell-based.

The target in assay [9] is T4, Muscarinic acetylcholine receptor M1. The assay is classed as functional, cell-based. The source holds these as a separate data set.
In assay [10] the target is T5, Prostaglandin G/H synthase 1 (Rattus norvegicus, UniProt Q63921).
T5 sequence (Q63921 whole entry): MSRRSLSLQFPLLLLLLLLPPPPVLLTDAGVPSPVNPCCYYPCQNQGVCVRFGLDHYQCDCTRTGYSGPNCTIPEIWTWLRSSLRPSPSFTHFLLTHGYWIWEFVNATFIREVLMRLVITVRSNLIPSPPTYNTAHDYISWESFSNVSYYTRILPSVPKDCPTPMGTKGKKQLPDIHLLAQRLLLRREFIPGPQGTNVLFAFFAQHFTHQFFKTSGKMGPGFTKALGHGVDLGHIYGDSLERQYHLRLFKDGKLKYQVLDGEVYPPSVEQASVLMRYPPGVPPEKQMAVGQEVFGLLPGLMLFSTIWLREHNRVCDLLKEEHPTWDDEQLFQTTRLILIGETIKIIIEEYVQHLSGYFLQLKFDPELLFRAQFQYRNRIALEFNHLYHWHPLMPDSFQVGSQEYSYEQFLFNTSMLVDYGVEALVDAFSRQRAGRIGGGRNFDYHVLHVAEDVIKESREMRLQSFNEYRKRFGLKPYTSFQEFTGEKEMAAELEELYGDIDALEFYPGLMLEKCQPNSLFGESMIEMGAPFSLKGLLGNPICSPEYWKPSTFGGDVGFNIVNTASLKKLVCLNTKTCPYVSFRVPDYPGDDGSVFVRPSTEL
Format: functional.

In the next assay the target is Estrogen receptor beta (Homo sapiens, UniProt Q92731).
Chain of Estrogen receptor beta (Q92731 whole entry): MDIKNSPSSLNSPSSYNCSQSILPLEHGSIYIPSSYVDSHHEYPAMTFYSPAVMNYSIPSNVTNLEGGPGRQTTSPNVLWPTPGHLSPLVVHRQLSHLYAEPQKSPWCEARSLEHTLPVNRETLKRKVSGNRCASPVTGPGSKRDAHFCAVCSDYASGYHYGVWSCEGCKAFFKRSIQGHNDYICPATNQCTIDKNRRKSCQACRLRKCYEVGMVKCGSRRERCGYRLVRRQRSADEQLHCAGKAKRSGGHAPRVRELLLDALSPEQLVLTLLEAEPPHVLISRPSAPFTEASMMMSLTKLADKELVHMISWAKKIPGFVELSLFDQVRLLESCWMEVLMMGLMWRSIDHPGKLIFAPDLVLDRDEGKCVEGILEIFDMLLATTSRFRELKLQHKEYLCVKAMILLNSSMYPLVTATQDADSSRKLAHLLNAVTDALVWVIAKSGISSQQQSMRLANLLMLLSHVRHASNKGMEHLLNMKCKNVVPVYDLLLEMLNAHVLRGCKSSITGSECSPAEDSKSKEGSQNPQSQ
The target of a further assay is Histamine H1 receptor (Homo sapiens, UniProt P35367). The assay is classed as functional, cell-based.
Chain of Histamine H1 receptor (P35367 whole entry): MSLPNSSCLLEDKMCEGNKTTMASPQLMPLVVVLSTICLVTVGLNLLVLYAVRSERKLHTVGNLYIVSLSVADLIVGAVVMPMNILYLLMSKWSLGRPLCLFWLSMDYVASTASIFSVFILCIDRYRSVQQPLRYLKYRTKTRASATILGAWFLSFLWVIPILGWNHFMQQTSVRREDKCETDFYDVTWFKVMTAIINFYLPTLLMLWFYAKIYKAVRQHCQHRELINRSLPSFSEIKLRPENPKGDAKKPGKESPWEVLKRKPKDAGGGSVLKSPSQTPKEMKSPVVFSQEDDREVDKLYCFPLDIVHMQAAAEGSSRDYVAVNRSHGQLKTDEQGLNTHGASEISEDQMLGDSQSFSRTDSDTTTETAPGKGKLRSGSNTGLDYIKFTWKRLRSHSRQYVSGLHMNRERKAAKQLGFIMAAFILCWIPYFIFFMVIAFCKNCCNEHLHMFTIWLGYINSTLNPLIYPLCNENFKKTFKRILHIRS
Assay [11] has as its target Synaptic vesicular amine transporter (Rattus norvegicus, UniProt Q01827). The assay is classed as functional.
The target of assay [12] is Hydroxycarboxylic acid receptor 2 (Homo sapiens, UniProt Q8TDS4).
Chain of Hydroxycarboxylic acid receptor 2 (Q8TDS4 whole entry): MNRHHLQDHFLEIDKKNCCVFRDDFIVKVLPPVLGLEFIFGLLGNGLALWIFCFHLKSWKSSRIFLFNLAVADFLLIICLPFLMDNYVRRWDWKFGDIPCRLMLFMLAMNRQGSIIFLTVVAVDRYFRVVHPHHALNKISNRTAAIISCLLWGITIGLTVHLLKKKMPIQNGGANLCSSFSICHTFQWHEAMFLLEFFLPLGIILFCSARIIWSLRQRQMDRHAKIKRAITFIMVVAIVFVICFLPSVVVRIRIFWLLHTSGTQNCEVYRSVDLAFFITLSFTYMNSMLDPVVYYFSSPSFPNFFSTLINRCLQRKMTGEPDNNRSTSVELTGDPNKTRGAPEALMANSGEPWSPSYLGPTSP
In assay [13] the target is 5-hydroxytryptamine receptor 2B (Homo sapiens, UniProt P41595).
Chain of 5-hydroxytryptamine receptor 2B (P41595 whole entry): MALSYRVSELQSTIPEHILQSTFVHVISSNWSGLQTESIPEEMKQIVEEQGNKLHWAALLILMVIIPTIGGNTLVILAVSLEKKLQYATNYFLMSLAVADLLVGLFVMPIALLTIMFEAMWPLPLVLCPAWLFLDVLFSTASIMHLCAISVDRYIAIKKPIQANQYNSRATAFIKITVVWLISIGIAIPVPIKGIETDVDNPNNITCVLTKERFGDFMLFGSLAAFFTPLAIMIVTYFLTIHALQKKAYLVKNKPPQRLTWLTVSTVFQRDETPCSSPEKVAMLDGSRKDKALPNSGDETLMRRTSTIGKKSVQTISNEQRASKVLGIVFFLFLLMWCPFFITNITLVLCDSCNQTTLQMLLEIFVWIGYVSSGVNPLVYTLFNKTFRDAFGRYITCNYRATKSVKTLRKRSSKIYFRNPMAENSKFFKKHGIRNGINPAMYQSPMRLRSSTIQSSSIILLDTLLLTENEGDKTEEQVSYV
Assay [14] has as its target T3, D(1A) dopamine receptor.
Also: assay procedure not described here.

T3 sequence (P21728 whole entry): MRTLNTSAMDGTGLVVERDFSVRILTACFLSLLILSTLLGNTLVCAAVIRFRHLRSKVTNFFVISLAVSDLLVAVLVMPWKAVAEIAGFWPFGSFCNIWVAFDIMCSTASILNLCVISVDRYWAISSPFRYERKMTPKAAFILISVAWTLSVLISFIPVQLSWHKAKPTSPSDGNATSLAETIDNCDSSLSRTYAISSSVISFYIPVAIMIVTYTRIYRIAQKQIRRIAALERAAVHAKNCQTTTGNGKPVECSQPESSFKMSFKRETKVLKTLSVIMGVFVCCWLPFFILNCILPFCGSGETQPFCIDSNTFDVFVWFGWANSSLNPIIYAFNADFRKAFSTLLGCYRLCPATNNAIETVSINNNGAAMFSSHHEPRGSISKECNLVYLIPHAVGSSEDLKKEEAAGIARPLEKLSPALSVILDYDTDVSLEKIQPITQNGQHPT
Chain of Rod cGMP-specific 3',5'-cyclic phosphodiesterase subunit alpha (P16499 whole entry): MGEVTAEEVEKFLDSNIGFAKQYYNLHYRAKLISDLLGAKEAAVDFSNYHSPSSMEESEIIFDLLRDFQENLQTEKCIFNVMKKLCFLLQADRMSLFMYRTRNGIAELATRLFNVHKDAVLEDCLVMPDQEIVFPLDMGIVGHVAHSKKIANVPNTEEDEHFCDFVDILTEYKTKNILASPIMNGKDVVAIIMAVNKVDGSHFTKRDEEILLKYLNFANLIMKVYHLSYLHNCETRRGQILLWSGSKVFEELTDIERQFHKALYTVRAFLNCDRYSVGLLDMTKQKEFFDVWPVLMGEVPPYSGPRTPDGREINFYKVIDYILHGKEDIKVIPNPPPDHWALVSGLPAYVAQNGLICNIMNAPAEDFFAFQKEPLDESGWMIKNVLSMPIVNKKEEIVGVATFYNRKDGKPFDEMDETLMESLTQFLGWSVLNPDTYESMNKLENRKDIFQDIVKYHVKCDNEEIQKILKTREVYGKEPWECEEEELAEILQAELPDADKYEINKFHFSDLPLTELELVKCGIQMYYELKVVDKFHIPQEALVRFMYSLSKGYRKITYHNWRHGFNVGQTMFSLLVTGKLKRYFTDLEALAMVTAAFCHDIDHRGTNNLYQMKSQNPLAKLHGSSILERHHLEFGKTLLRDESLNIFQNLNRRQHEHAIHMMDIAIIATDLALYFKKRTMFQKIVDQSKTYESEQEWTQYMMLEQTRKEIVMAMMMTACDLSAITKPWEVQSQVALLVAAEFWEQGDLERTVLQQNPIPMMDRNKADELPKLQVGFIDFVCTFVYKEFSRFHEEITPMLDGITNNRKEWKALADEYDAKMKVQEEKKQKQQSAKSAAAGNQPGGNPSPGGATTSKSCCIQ
Chain of Synaptic vesicular amine transporter (Q01827 whole entry): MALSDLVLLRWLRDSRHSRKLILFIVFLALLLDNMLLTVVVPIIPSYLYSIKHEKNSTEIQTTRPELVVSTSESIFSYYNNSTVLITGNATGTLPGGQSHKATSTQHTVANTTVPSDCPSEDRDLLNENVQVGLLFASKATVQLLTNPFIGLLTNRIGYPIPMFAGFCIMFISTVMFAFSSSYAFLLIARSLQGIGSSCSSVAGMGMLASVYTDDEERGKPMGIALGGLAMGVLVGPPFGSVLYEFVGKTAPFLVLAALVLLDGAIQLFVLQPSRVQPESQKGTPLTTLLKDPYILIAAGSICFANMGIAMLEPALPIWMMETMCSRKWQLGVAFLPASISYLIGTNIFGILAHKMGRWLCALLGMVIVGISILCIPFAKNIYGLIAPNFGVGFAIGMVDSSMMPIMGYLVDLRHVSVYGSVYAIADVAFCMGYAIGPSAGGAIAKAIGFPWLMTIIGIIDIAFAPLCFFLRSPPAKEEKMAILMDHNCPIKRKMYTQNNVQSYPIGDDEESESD

Take `Cc1cccc(C)c1NC(=O)CC12CCCN1CCC2` [PILSICAINIDE]: the AC50 in [1] is above 50 µM. `O=C(/C=C/c1cccc(S(=O)(=O)Nc2ccccc2)c1)NO` [BELINOSTAT]: the AC50 (in [2]; in assay [3]; at D(1B) dopamine receptor; in assay [4]) was above 10 µM throughout. For `CC(C)c1cccc(C(C)C)c1O` [PROPOFOL], the AC50 (in [5]; at Thromboxane A2 receptor; in assay [6]; on D(1A) dopamine receptor [7]) was above 30 µM each time. As to `C[N+]1(C)CCC(=C(c2ccccc2)c2ccccc2)CC1`, the AC50 in assay [8] was above 30 µM; in assay [9], 0.12 µM.

In [10], `CC(=O)O[C@]1(C(C)=O)CC[C@H]2[C@@H]3C=C(Cl)C4=CC(=O)[C@@H]5C[C@@H]5[C@]4(C)[C@H]3CC[C@@]21C` [CYPROTERONE ACETATE] came in with an AC50 above 30 µM. The compound `CN(Cc1cnc2nc(N)nc(N)c2n1)c1ccc(C(=O)N[C@@H](CCC(=O)O)C(=O)O)cc1` [METHOTREXATE] had a concentration at half-maximal activity (AC50) at Estrogen receptor beta above 30 µM. At Histamine H1 receptor, `OC[C@H]1O[C@@H](n2cnc3c2NC=NC[C@H]3O)C[C@@H]1O` [PENTOSTATIN] came in with an AC50 above 30 µM. Turning to `O=S1(=O)CCN(CN2CCS(=O)(=O)NC2)CN1` [TAUROLIDINE], the concentration at half-maximal activity (AC50) on Histamine H1 receptor was above 30 µM.

`C[C@@H]1C[C@H]2[C@@H]3C[C@H](F)C4=CC(=O)C=C[C@]4(C)[C@@]3(F)[C@@H](O)C[C@]2(C)[C@@]1(OC(=O)c1ccco1)C(=O)SCF` [FLUTICASONE FUROATE]: in [3], the concentration at half-maximal activity (AC50) was above 10 µM. `CN[C@]1(c2ccccc2Cl)CCCCC1=O` [ESKETAMINE] yielded an AC50 in assay [11] above 30 µM.

`CN(C)CCCN1c2ccccc2CCc2ccccc21` [IMIPRAMINE]: the AC50 was 11.4 µM in assay [11]; above 10 µM in assay [2]; 0.33 µM in assay [3]; 8.33 µM at D(1B) dopamine receptor; 2.26 µM in [4]; above 30 µM at Estrogen receptor beta. `CN[C@@H](C)[C@@H](O)c1ccccc1` [PSEUDOEPHEDRINE]: the AC50 in [12] was above 10 µM; on Estrogen receptor beta, above 30 µM. With `O=C(O)COCCN1CCN(C(c2ccccc2)c2ccc(Cl)cc2)CC1` (stereo not given) [CETIRIZINE], the AC50 was above 10 µM in assay [12] and above 30 µM on Estrogen receptor beta. As to `O=C1OC(OC(=O)c2cccnc2Nc2cccc(C(F)(F)F)c2)c2ccccc21` (stereo not given) [TALNIFLUMATE], the AC50 on Histamine H1 receptor is above 30 µM. On Histamine H1 receptor, `CN(C)C/C=C/C(=O)Nc1cc2c(Nc3ccc(F)c(Cl)c3)ncnc2cc1O[C@H]1CCOC1` [AFATINIB] yielded a concentration at half-maximal activity (AC50) above 30 µM. In the case of `CC(O)(CS(=O)(=O)c1ccc(F)cc1)C(=O)Nc1ccc(C#N)c(C(F)(F)F)c1` (stereo not given) [BICALUTAMIDE], the AC50 is above 30 µM in assay [10], above 10 µM in assay [3] and above 30 µM at Estrogen receptor beta. `CC(Cc1cccc(C(F)(F)F)c1)NCCOC(=O)c1ccccc1` (stereo not given) [BENFLUOREX] had an AC50 in assay [13] of 0.933 µM. For the compound `CNCCc1ccc(OC(=O)C(C)C)c(OC(=O)C(C)C)c1` [IBOPAMINE], the AC50 at D(1A) dopamine receptor [14] and on D(1A) dopamine receptor [7] was above 30 µM each time.

For the origin of these results see ChEMBL document CHEMBL5291721, “A preclinical secondary pharmacology resource illuminates target-adverse drug reaction associations of marketed drugs” (Nat Commun, 2023).
